biological target: T1, PD-1/PD-L1 (Homo sapiens, UniProt Q9NZQ7); assay: PD-1/PD-L1 Homogenous Time-Resolved Fluorescence (HTRF) binding assay; conditions: PD-L1-His 10 nM, PD-1-Ig 20 nM
T1 construct: TVMV protease site linker (C); made in house; host or cells: HEK293T cells
Procedure, shortened: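 Inhibitors pre-incubated 15 min with PD-L1-His extracellular domain (10 nM final) in dPBS with 0.1% BSA and 0.05% Tween-20, then PD-1-Ig (20 nM final) added for a further 15 min. Read-out by HTRF with europium cryptate anti-Ig (1 nM) and APC anti-His (20 nM). Related pairs: PD-1-Ig/PD-L2-His (20/5 nM), CD80-His/PD-L1-Ig (100/10 nM).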

T1 sequence (Q9NZQ7 18-239): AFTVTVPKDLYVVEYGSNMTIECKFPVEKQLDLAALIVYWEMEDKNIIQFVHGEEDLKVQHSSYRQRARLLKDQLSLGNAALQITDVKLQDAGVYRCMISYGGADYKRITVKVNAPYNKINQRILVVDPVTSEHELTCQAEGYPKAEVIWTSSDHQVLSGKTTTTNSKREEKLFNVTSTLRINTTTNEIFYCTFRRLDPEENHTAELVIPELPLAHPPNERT

Row | Compound | IC50 [nM]
1 | Cc1c(COc2cc(OCc3cncc(C#N)c3)c(CN(C)C(C)c3nnn[nH]3)cc2Cl)cccc1-c1cccc(OCCCNC[C@H](O)CO)c1Cl (stereo partly drawn) [Example 1034, 5-((2-(((1-(1H-Tetrazol-5-yl)ethyl)(methyl)amino)methyl)-4-chloro-5-((2′-chloro-3′-(3-(((S)-2,3-dihydroxypropyl)amino)propoxy)-2-methyl-[1,1′-biphenyl]-3-yl)methoxy)-phenoxy)methyl)-nicotinonitrile] | 0.4
2 | Cc1c(COc2cc(OCc3cncc(C#N)c3)c(CNCc3ncc(-c4ccccc4)o3)cc2Cl)cccc1-c1cccc(OCC2CCCN(C)C2)c1Cl (stereo not drawn) [Example 2612, 5-((4-chloro-5-((2′-chloro-2-methyl-3′-((1-methylpiperidin-3-yl)methoxy)-[1,1′-biphenyl]-3-yl)methoxy)-2-((((5-phenyloxazol-2-yl)methyl)amino)methyl)phenoxy)methyl)nicotinonitrile] | 7.3
3 | Cc1c(COc2cc(OCc3cncc(C#N)c3)c(CNCCc3nc4ccccc4[nH]3)cc2Cl)cccc1-c1cccc(OCC2CCCN(C)C2)c1Cl (stereo not drawn) [Example 2593, 5-((2-(((2-(1H-benzo[d]imidazol-2-yl)ethyl)amino)methyl)-4-chloro-5-((2′-chloro-2-methyl-3′-((1-methylpiperidin-3-yl)methoxy)-[1,1′-biphenyl]-3-yl)methoxy)phenoxy)methyl)nicotinonitrile] | 3
4 | Cc1c(COc2cc(OCc3cncc(C#N)c3)c(CN3CCc4c(ncn4C)C3)cc2Cl)cccc1-c1cccc(OCCCN2CC[C@@H](O)C2)c1C [Example 2502] | 0.9
5 | Cc1c(COc2cc(OCc3cncc(C#N)c3)c(CNC3(c4ncon4)CC(OCc4ccccc4)C3)cc2Cl)cccc1-c1cccc(OCC2CCCN(C)C2)c1Cl (stereo not drawn) [Example 2625, 5-((2-(((3-(benzyloxy)-1-(1,2,4-oxadiazol-3-yl)cyclobutyl)amino)methyl)-4-chloro-5-((2′-chloro-2-methyl-3′-((1-methylpiperidin-3-yl)methoxy)-[1,1′-biphenyl]-3-yl)methoxy)phenoxy)methyl)nicotinonitrile] | 35.3
6 | Cc1c(COc2cc(OCc3cncc(C#N)c3)c(CN(C)Cc3cncs3)cc2Cl)cccc1-c1cccc(OC2CCN(C)CC2)c1Cl [Example 2048, 5-((4-chloro-5-((2′-chloro-2-methyl-3′-((1-methylpiperidin-4-yl)oxy)-[1,1′-biphenyl]-3-yl)methoxy)-2-((methyl(thiazol-5-ylmethyl)amino)methyl)phenoxy)methyl)nicotinonitrile] | 355
7 | Cc1c(COc2cc(OCc3cncc(C#N)c3)c(CN(C)Cc3cc[nH]n3)cc2Cl)cccc1-c1cccc(OCCCN2CCC(O)(CO)CC2)c1Cl [Example 2016, 5-((2-((((1H-pyrazol-3-yl)methyl)(methyl)amino)methyl)-4-chloro-5-((2′-chloro-3′-(3-(4-hydroxy-4-(hydroxymethyl)piperidin-1-yl)propoxy)-2-methyl-[1,1′-biphenyl]-3-yl)methoxy)phenoxy)methyl)nicotinonitrile] | 0.2
8 | CC(=O)NC1CCN(CCCOc2cccc(-c3cccc(COc4cc(OCc5cncc(C#N)c5)c(CN5CCC(c6nnn[nH]6)C5)cc4Cl)c3C)c2Cl)CC1 (stereo not drawn) [Example 1058, N-(1-(3-((3′-((4-((3-(1H-Tetrazol-5-yl)pyrrolidin-1-yl)methyl)-2-chloro-5-((5-cyano-pyridin-3-yl)methoxy)phenoxy)methyl)-2-chloro-2′-methyl-[1,1′-biphenyl]-3-yl)oxy)-propyl)piperidin-4-yl)acetamide] | 1.9
9 | CC(=O)NC1CCN(CCCOc2cccc(-c3cccc(COc4cc(OCc5cncc(C#N)c5)c(CN(C)Cc5nnn[nH]5)cc4Cl)c3C)c2C)CC1 [Example 1044, N-(1-(3-((3′-((4-((((1H-Tetrazol-5-yl)methyl)(methyl)amino)methyl)-2-chloro-5-((5-cyanopyridin-3-yl)methoxy)phenoxy)methyl)-2,2′-dimethyl-[1,1′-biphenyl]-3-yl)oxy)-propyl)piperidin-4-yl)acetamide] | 0.5
10 | Cc1c(COc2cc(OCc3cncc(C#N)c3)c(CNCc3cccnn3)cc2Cl)cccc1-c1cccc(OCCCN2CC[C@@H](O)C2)c1C [Example 2021, (R)-5-((4-chloro-5-((3′-(3-(3-hydroxypyrrolidin-1-yl)propoxy)-2,2′-dimethyl-[1,1′-biphenyl]-3-yl)methoxy)-2-(((pyridazin-3-ylmethyl)amino)methyl)phenoxy)methyl)nicotinonitrile] | 6
11 | COCc1noc(CN(C)Cc2cc(Cl)c(OCc3cccc(-c4cccc(OCCCN5CC[C@@H](O)C5)c4C)c3C)cc2OCc2cncc(C#N)c2)n1 [Example 2560, (R)-5-((4-chloro-5-((3′-(3-(3-hydroxypyrrolidin-1-yl)propoxy)-2,2′-dimethyl-[1,1′-biphenyl]-3-yl)methoxy)-2-((((3-(methoxymethyl)-1,2,4-oxadiazol-5-yl)methyl)(methyl)amino)methyl)phenoxy)methyl)nicotinonitrile] | 4.5
12 | Cc1c(COc2cc(OCc3cncc(C#N)c3)c(CNCc3ncn[nH]3)cc2Cl)cccc1-c1cccc(OCCCN2CCC(O)(CO)CC2)c1Cl [Example 2009, 5-((2-((((1H-1,2,4-triazol-5-yl)methyl)amino)methyl)-4-chloro-5-((2′-chloro-3′-(3-(4-hydroxy-4-(hydroxymethyl)piperidin-1-yl)propoxy)-2-methyl-[1,1′-biphenyl]-3-yl)methoxy)phenoxy)methyl)nicotinonitrile] | 2.1
13 | Cc1c(COc2cc(OCc3cncc(C#N)c3)c(CN(C)Cc3cocn3)cc2Cl)cccc1-c1cccc(OCCCN2CC[C@@H](O)C2)c1C [Example 2544, (R)-5-((4-chloro-5-((3′-(3-(3-hydroxypyrrolidin-1-yl)propoxy)-2,2′-dimethyl-[1,1′-biphenyl]-3-yl)methoxy)-2-((methyl(oxazol-4-ylmethyl)amino)methyl)phenoxy)methyl)nicotinonitrile] | 1.6
14 | Cc1c(COc2cc(OCc3cncc(C#N)c3)c(CN(C)Cc3nc[nH]n3)cc2Cl)cccc1-c1cccc(OCC2CCCN(C)C2)c1Cl (stereo not drawn) [Example 2618, 5-((2-((((1H-1,2,4-triazol-3-yl)methyl)(methyl)amino)methyl)-4-chloro-5-((2′-chloro-2-methyl-3′-((1-methylpiperidin-3-yl)methoxy)-[1,1′-biphenyl]-3-yl)methoxy)phenoxy)methyl)nicotinonitrile] | 0.7
15 | Cc1c(COc2cc(OCc3cncc(C#N)c3)c(CN(C)C(C)c3nnn[nH]3)cc2Cl)cccc1-c1cccc(OCCCNC[C@H](O)CO)c1C (stereo partly drawn) [Example 1030, 5-((2-(((1-(1H-Tetrazol-5-yl)ethyl)(methyl)amino)methyl)-4-chloro-5-((3′-(3-(((S)-2,3-dihydroxypropyl)amino)propoxy)-2,2′-dimethyl-[1,1′-biphenyl]-3-yl)methoxy)-phenoxy)methyl)nicotinonitrile] | 0.2
16 | Cc1c(COc2cc(OCc3cncc(C#N)c3)c(CN(C)Cc3ncco3)cc2Cl)cccc1-c1cccc(OCCCN2CC[C@@H](O)C2)c1C [Example 2550, (R)-5-((4-chloro-5-((3′-(3-(3-hydroxypyrrolidin-1-yl)propoxy)-2,2′-dimethyl-[1,1′-biphenyl]-3-yl)methoxy)-2-((methyl(oxazol-2-ylmethyl)amino)methyl)phenoxy)methyl)nicotinonitrile] | 0.5
17 | CC(=O)NC1CCN(CCCOc2cccc(-c3cccc(COc4cc(OCc5cncc(C#N)c5)c(CNc5nnn[nH]5)cc4Cl)c3C)c2C)CC1 [Example 1036, N-(1-(3-((3′-((4-(((1H-Tetrazol-5-yl)amino)methyl)-2-chloro-5-((5-cyanopyridin-3-yl)-methoxy)phenoxy)methyl)-2,2′-dimethyl-[1,1′-biphenyl]-3-yl)oxy)propyl)piperidin-4-yl)-acetamide] | 4.2
18 | Cc1c(COc2cc(OCc3cncc(C#N)c3)c(CNCc3ncc4ccccn34)cc2Cl)cccc1-c1cccc(OCCCN2CC[C@@H](O)C2)c1C [Example 2565, (R)-5-((4-chloro-5-((3′-(3-(3-hydroxypyrrolidin-1-yl)propoxy)-2,2′-dimethyl-[1,1′-biphenyl]-3-yl)methoxy)-2-(((imidazo[1,5-a]pyridin-3-ylmethyl)amino)methyl)phenoxy)methyl)nicotinonitrile] | 4.7
19 | Cc1c(COc2cc(OCc3cncc(C#N)c3)c(CNCc3nc4ccccc4s3)cc2Cl)cccc1-c1cccc(OCCCN2CC[C@@H](O)C2)c1C [Example 2549, (R)-5-((2-(((benzo[d]thiazol-2-ylmethyl)amino)methyl)-4-chloro-5-((3′-(3-(3-hydroxypyrrolidin-1-yl)propoxy)-2,2′-dimethyl-[1,1′-biphenyl]-3-yl)methoxy)phenoxy)methyl)nicotinonitrile] | 33.2
20 | Cc1c(COc2cc(OCc3cncc(C#N)c3)c(CNCc3cc(C)n(C)n3)cc2Cl)cccc1-c1cccc(OCC2CCCN(C)C2)c1Cl (stereo not drawn) [Example 2596, 5-((4-chloro-5-((2′-chloro-2-methyl-3′-((1-methylpiperidin-3-yl)methoxy)-[1,1′-biphenyl]-3-yl)methoxy)-2-((((1,5-dimethyl-1H-pyrazol-3-yl)methyl)amino)methyl)phenoxy)methyl)nicotinonitrile] | 2.9
21 | Cc1c(COc2cc(OCc3cncc(C#N)c3)c(CN(C)CCc3nn[nH]n3)cc2Cl)cccc1-c1cccc(OCCCN2CC[C@@H](O)C2)c1C [Example 1004, (R)-5-((2-(((2-(2H-Tetrazol-5-yl)ethyl)(methyl)amino)methyl)-4-chloro-5-((3′-(3-(3-hydroxypyrrolidin-1-yl)propoxy)-2,2′-dimethyl-[1,1′-biphenyl]-3-yl)methoxy)phenoxy)-methyl)nicotinonitrile] | 1.1

From patent publication US20240124417A1, “COMPOUNDS USEFUL AS IMMUNOMODULATORS” (Bristol-Myers Squibb Company, priority 2019, published 2024)
